Test system: subjects with insomnia related to rheumatoid arthritis
Experiment: Arthritis Self-Efficacy Scale, clinical study of eszopiclone 3 mg vs placebo
Type: in vivo, human
Experimental: The study was aimed at observing the effect of eszopiclone 3 mg compared to placebo on daytime function in subjects with insomnia related to rheumatoid arthritis. The study was a multicenter, randomized, double-blind, placebo controlled, parallel group study.
A total of 153 subjects were randomized. Among them, 77 received 3 mg of eszopiclone (ESZ) nightly (at bedtime) for four weeks and 76 received matching placebo (PBO). […] In addition, subjects had insomnia symptoms including wake time after sleep onset (WASO) of ≧45 minutes, and total sleep time ≦6.5 hours. Diagnosis of rheumatoid arthritis predated the onset of insomnia symptoms.
During the double blind treatment, subjects were dosed with 3 mg eszopiclone (ESZ) or matching placebo (PBO) nightly (at bedtime) for four weeks. Data was analyzed with one-sided significance tests.

[1] = 3 mg nightly, visit 5 (Week 4), ITT
[2] = 3 mg nightly, visit 5 (Week 4), ITT, ANCOVA
[3] = 3 mg nightly, visit 6 (EOS), ITT

CN1CCN(C(=O)O[C@H]2c3nccnc3C(=O)N2c2ccc(Cl)cn2)CC1 [Eszopiclone, (+) 6-(5-chloropyrid-2-yl)-5-(4-methylpiperazin-1-yl)carbonyloxy-7-oxo-6,7-dihydro-5H-pyrrolo[3-4-b]pyrazine]
Arthritis Self-Efficacy Scale Pain subscale analyzed alone, difference (3 mg nightly vs placebo): statistically significant difference | Arthritis Self-Efficacy Scale Pain subscale in combination with Other Symptoms, difference (3 mg nightly vs placebo): statistically significant difference | effect on change from baseline to end of study (Week 4) in the Overall score for the Arthritis Self-Efficacy Scale (3 mg nightly vs placebo): significant effect | Arthritis Self-Efficacy Scale Function, Change from Baseline, 25th Percentile [1]: −1.0 | Arthritis Self-Efficacy Scale Function, Change from Baseline, 75th Percentile [1]: 13.5 | Arthritis Self-Efficacy Scale Function, Change from Baseline, Maximum [1]: 74.0 | Arthritis Self-Efficacy Scale Function, Change from Baseline, Mean (SD) [1]: 4.8 (15.7) | Arthritis Self-Efficacy Scale Function, Change from Baseline, Median [1]: 4.0 | Arthritis Self-Efficacy Scale Function, Change from Baseline, Minimum [1]: −34.0 | Arthritis Self-Efficacy Scale Function, Observed Value, 25th Percentile [1]: 45.5 | Arthritis Self-Efficacy Scale Function, Observed Value, 75th Percentile [1]: 83.5 | Arthritis Self-Efficacy Scale Function, Observed Value, Maximum [1]: 90.0 | Arthritis Self-Efficacy Scale Function, Observed Value, Mean (SD) [1]: 62.0 (22.1) | Arthritis Self-Efficacy Scale Function, Observed Value, Median [1]: 61.0 | Arthritis Self-Efficacy Scale Function, Observed Value, Minimum [1]: 13.0 | Arthritis Self-Efficacy Scale Other Symptoms, Change from Baseline, 25th Percentile [1]: −2.0 | Arthritis Self-Efficacy Scale Other Symptoms, Change from Baseline, 75th Percentile [1]: 10.0 | Arthritis Self-Efficacy Scale Other Symptoms, Change from Baseline, Maximum [1]: 41.0 | Arthritis Self-Efficacy Scale Other Symptoms, Change from Baseline, Mean (SD) [1]: 3.5 (10.5) | Arthritis Self-Efficacy Scale Other Symptoms, Change from Baseline, Median [1]: 3.0 | Arthritis Self-Efficacy Scale Other Symptoms, Change from Baseline, Minimum [1]: −26.0 | Arthritis Self-Efficacy Scale Other Symptoms, Observed Value, 25th Percentile [1]: 31.5 | Arthritis Self-Efficacy Scale Other Symptoms, Observed Value, 75th Percentile [1]: 50.0 | Arthritis Self-Efficacy Scale Other Symptoms, Observed Value, Maximum [1]: 59.0 | Arthritis Self-Efficacy Scale Other Symptoms, Observed Value, Mean (SD) [1]: 39.3 (12.7) | Arthritis Self-Efficacy Scale Other Symptoms, Observed Value, Median [1]: 40.0 | Arthritis Self-Efficacy Scale Other Symptoms, Observed Value, Minimum [1]: 6.0 | Arthritis Self-Efficacy Scale Overall, Change from Baseline, 25th Percentile [1]: −1.6 | Arthritis Self-Efficacy Scale Overall, Change from Baseline, 75th Percentile [1]: 26.0 | Arthritis Self-Efficacy Scale Overall, Change from Baseline, Maximum [1]: 124.0 | Arthritis Self-Efficacy Scale Overall, Change from Baseline, Mean (SD) [1]: 11.5 (29.3) | Arthritis Self-Efficacy Scale Overall, Change from Baseline, Median [1]: 12.0 | Arthritis Self-Efficacy Scale Overall, Change from Baseline, Minimum [1]: −74.0 | Arthritis Self-Efficacy Scale Overall, Observed Value, 25th Percentile [1]: 103.0 | Arthritis Self-Efficacy Scale Overall, Observed Value, 75th Percentile [1]: 162.5 | Arthritis Self-Efficacy Scale Overall, Observed Value, Maximum [1]: 189.0 | Arthritis Self-Efficacy Scale Overall, Observed Value, Mean (SD) [1]: 130.9 (38.2) | Arthritis Self-Efficacy Scale Overall, Observed Value, Median [1]: 132.6 | Arthritis Self-Efficacy Scale Overall, Observed Value, Minimum [1]: 27.0 | Arthritis Self-Efficacy Scale Pain and Other Symptoms, Change from Baseline, 25th Percentile [1]: 1.0 | Arthritis Self-Efficacy Scale Pain and Other Symptoms, Change from Baseline, 75th Percentile [1]: 13.0 | Arthritis Self-Efficacy Scale Pain and Other Symptoms, Change from Baseline, Maximum [1]: 50.0 | Arthritis Self-Efficacy Scale Pain and Other Symptoms, Change from Baseline, Mean (SD) [1]: 6.9 (16.4) | Arthritis Self-Efficacy Scale Pain and Other Symptoms, Change from Baseline, Median [1]: 6.0 | Arthritis Self-Efficacy Scale Pain and Other Symptoms, Change from Baseline, Minimum [1]: −46.0 | Arthritis Self-Efficacy Scale Pain and Other Symptoms, Observed Value, 25th Percentile [1]: 53.5 | Arthritis Self-Efficacy Scale Pain and Other Symptoms, Observed Value, 75th Percentile [1]: 86.0 | Arthritis Self-Efficacy Scale Pain and Other Symptoms, Observed Value, Maximum [1]: 101.0 | Arthritis Self-Efficacy Scale Pain and Other Symptoms, Observed Value, Mean (SD) [1]: 68.5 (21.1) | Arthritis Self-Efficacy Scale Pain and Other Symptoms, Observed Value, Median [1]: 69.7 | Arthritis Self-Efficacy Scale Pain and Other Symptoms, Observed Value, Minimum [1]: 14.0 | Arthritis Self-Efficacy Scale Pain, Change from Baseline, 25th Percentile [1]: −1.0 | Arthritis Self-Efficacy Scale Pain, Change from Baseline, 75th Percentile [1]: 10.5 | Arthritis Self-Efficacy Scale Pain, Change from Baseline, Maximum [1]: 30.0 | Arthritis Self-Efficacy Scale Pain, Change from Baseline, Mean (SD) [1]: 3.3 (10.5) | Arthritis Self-Efficacy Scale Pain, Change from Baseline, Median [1]: 3.0 | Arthritis Self-Efficacy Scale Pain, Change from Baseline, Minimum [1]: −37.0 | Arthritis Self-Efficacy Scale Pain, Observed Value, 25th Percentile [1]: 22.0 | Arthritis Self-Efficacy Scale Pain, Observed Value, 75th Percentile [1]: 38.0 | Arthritis Self-Efficacy Scale Pain, Observed Value, Maximum [1]: 50.0 | Arthritis Self-Efficacy Scale Pain, Observed Value, Median [1]: 28.0 | Arthritis Self-Efficacy Scale Pain, Observed Value, Minimum [1]: 8.0 | Arthritis Self-Efficacy Scale Function, Change from Baseline, Least Squares Means (SE) [2] [2]: 4.2 (1.7) | Arthritis Self-Efficacy Scale Other Symptoms, Change from Baseline, Least Squares Means (SE) [2] [2]: 3.4 (1.2) | Arthritis Self-Efficacy Scale Overall, Change from Baseline, Least Squares Means (SE) [2] [2]: 10.4 (3.2) | Arthritis Self-Efficacy Scale Pain and Other Symptoms, Change from Baseline, Least Squares Means (SE) [2] [2]: 6.6 (1.9) | Arthritis Self-Efficacy Scale Pain, Change from Baseline, Least Squares Means (SE) [2] [2]: 3.1 (1.0) | Arthritis Self-Efficacy Scale Function, Change from Baseline, 25th Percentile [3]: −1.0 | Arthritis Self-Efficacy Scale Function, Change from Baseline, 75th Percentile [3]: 14.0 | Arthritis Self-Efficacy Scale Function, Change from Baseline, Maximum [3]: 58.0 | Arthritis Self-Efficacy Scale Function, Change from Baseline, Mean (SD) [3]: 6.8 (15.6) | Arthritis Self-Efficacy Scale Function, Change from Baseline, Median [3]: 5.0 | Arthritis Self-Efficacy Scale Function, Change from Baseline, Minimum [3]: −45.0 | Arthritis Self-Efficacy Scale Function, Observed Value, 25th Percentile [3]: 45.0 | Arthritis Self-Efficacy Scale Function, Observed Value, 75th Percentile [3]: 85.0

From patent US7776858B2, “Methods of treatment of chronic pain using eszopiclone” (Sepracor Inc., priority 2004, dated 2010)
